What was measured:
[1] = system: foreskin cells in which senescence was induced by doxorubicin; experiment: CellTiter-Glo cell viability of doxorubicin-induced senescent foreskin cells (Examples 1-2, 10, 11, 13; Tables 4, 63, 65); type: cell-based, human; details: doxorubicin-induced senescent foreskin cells, CellTiter-Glo, 0 μM = 100
Description: (§1) After 3 days, cell viability was measured using CellTiter-Glo Luminescent Cell Viability Assay (Promega) or light microscopy.

HMGN1 [2] = experiment: HMGN1 ELISA in culture medium of foreskin cells (Examples 10, 11; Tables 62, 63, 64); type: cell-based, human; details: for HMGN1: 30 μM test compound, doxorubicin-treated foreskin cells, DMSO = 100
HMGN1 [3] = experiment: HMGN1 ELISA in culture medium of A549 cancer cells (Example 12, Table 66); type: cell-based, human; details: doxorubicin-induced senescent A549 cells, test compound 30 μM, ELISA, DMSO = 100
A549 = experiment: CellTiter-Glo cell viability of senescent A549 cancer cells (Example 12, Table 67); type: cell-based, human; details: doxorubicin-induced senescent A549 cancer cells, CellTiter-Glo
senescent foreskin cells = experiment: survival of senescent foreskin cells treated with medium supernatant (secreted fluid) of compound-killed cells (Example 13, Tables 68, 69); type: cell-based, human; details: culture medium supernatant from dying senescent cells treated with compound at 30 μM, 90 μM or 270 μM; senescent foreskin cells
Description: as §1
During this additional culture, by checking with an optical microscope, etc., the medium supernatants containing secreted fluid from normally proliferating and senescent cells in which cell death was induced were obtained. The obtained medium supernatant was replaced with the medium of normally proliferating and senescent cells, respectively, and cell survival rate was measured after 3 days.

p16, MMP3, IL6 [4] = experiment: p16, MMP3, IL6 mRNA qRT-PCR in liver of naturally aged mice treated with test compounds (Example 15, Table 71); type: in vivo, C57BL6J mice; details: liver tissue of naturally aged mice treated with test compound
[5] = open field test in naturally aged mice treated with test compounds (Example 15, Table 71); type: in vivo, C57BL6J mice; details: naturally aged mice treated with test compound
p16, MMP3, IL6 [6] = experiment: p16, MMP3, IL6 mRNA qRT-PCR in groin fat of obese mice given senescent cells killed by test compounds (Example 16, Table 72); type: in vivo, C57BL6J mice; details: obese mice administered senescent cells whose death was induced by the test compound
Source text: To obtain preadipocytes, groin fat tissue was collected from an 8-week-old female C57BL6J mouse (purchased from KRIBB Laboratory Animal Resource Center). The fat tissue was cut into small pieces and treated with collagenase to decompose the fat tissue, then centrifuged to collect the stromal vascular fraction (SVF) containing preadipocytes. It was washed with a washing medium (HBSS, purchased from GenDEPOT; 3.5% Albumin Fraction V, purchased from GenDEPOT; 100 U/ml Penicillin & Streptomycin, purchased from Invitrogen), mixed again, and extracted by filtering through a 100 μm nylon mesh. The isolated preadipocytes were cultured in the designated medium (DMEM, purchased from GenDEPOT; 20% FBS, purchased from GenDEPOT; 100 U/ml Penicillin & Streptomycin, purchased from Invitrogen). In the same manner as Example 1, cells were treated with doxorubicin at a concentration of 250 nM for 24 hours and cultured for an additional 21 days to induce cell senescence. Cells were treated with doxorubicin at a concentration of 250 nM for 24 hours and cultured for an additional 21 days to induce cell senescence. By treating the test compounds in the same manner as in Example 13, it was confirmed using an optical microscope that the death of most senescent cells was induced. The killed preadipocytes were washed using PBS (purchased from Welgene) and then mixed with PBS at a concentration of 5×10^5 cells/200 μl. It was administered subcutaneously to 8-week-old female C57BL6J mice (purchased from KRIBB Laboratory Animal Resource Center). At 7 and 10 days after administration of the killed senescent cells, 2 million senescent preadipocytes were mixed in 200 μl of PBS and administered into the abdominal cavity of mice. After administration of killed senescent cells, obesity was induced in mice with a high-fat diet (DIO) for 8 weeks in the same manner as in Example 9-1. Afterwards, the mouse was sacrificed in the same manner as in Example 7-2, total RNA was extracted from the groin fat tissue, and qRT-PCR was performed and analyzed using the synthesized cDNA. […] The mRNA amount of p16, MMP3, and IL6 without administration of senescent cells whose death was induced by the test compounds was calculated as 100%, and the amount of p16, MMP3, and IL6 after administration of the senescent cells whose death was induced by the test compounds was compared with them. Furthermore, an open field test was performed to analyze aging-related frailty in mice using the same method as Example 7-7. […] The amount of activity evaluation without administration of senescent cells whose death was induced by the test compounds was calculated as 100% and compared it with the amount of activity evaluation after administration of senescent cells whose death was induced by the test compounds. […]

[7] = open field test in obese mice given senescent cells killed by test compounds (Example 16, Table 72); type: in vivo, C57BL6J mice; details: obese mice administered senescent cells whose death was induced by the test compound
Source text: To obtain preadipocytes, groin fat tissue was collected from an 8-week-old female C57BL6J mouse (purchased from KRIBB Laboratory Animal Resource Center). The fat tissue was cut into small pieces and treated with collagenase to decompose the fat tissue, then centrifuged to collect the stromal vascular fraction (SVF) containing preadipocytes. It was washed with a washing medium (HBSS, purchased from GenDEPOT; 3.5% Albumin Fraction V, purchased from GenDEPOT; 100 U/ml Penicillin & Streptomycin, purchased from Invitrogen), mixed again, and extracted by filtering through a 100 μm nylon mesh. The isolated preadipocytes were cultured in the designated medium (DMEM, purchased from GenDEPOT; 20% FBS, purchased from GenDEPOT; 100 U/ml Penicillin & Streptomycin, purchased from Invitrogen). In the same manner as Example 1, cells were treated with doxorubicin at a concentration of 250 nM for 24 hours and cultured for an additional 21 days to induce cell senescence. Cells were treated with doxorubicin at a concentration of 250 nM for 24 hours and cultured for an additional 21 days to induce cell senescence. By treating the test compounds in the same manner as in Example 13, it was confirmed using an optical microscope that the death of most senescent cells was induced. The killed preadipocytes were washed using PBS (purchased from Welgene) and then mixed with PBS at a concentration of 5×10^5 cells/200 μl. It was administered subcutaneously to 8-week-old female C57BL6J mice (purchased from KRIBB Laboratory Animal Resource Center). At 7 and 10 days after administration of the killed senescent cells, 2 million senescent preadipocytes were mixed in 200 μl of PBS and administered into the abdominal cavity of mice. After administration of killed senescent cells, obesity was induced in mice with a high-fat diet (DIO) for 8 weeks in the same manner as in Example 9-1. Afterwards, the mouse was sacrificed in the same manner as in Example 7-2, total RNA was extracted from the groin fat tissue, and qRT-PCR was performed and analyzed using the synthesized cDNA. […] The mRNA amount of p16, MMP3, and IL6 without administration of senescent cells whose death was induced by the test compounds was calculated as 100%, and the amount of p16, MMP3, and IL6 after administration of the senescent cells whose death was induced by the test compounds was compared with them. Furthermore, an open field test was performed to analyze aging-related frailty in mice using the same method as Example 7-7. […] The amount of activity evaluation without administration of senescent cells whose death was induced by the test compounds was calculated as 100% and compared it with the amount of activity evaluation after administration of senescent cells whose death was induced by the test compounds.

[8] = chlorhexidine gluconate-induced peritoneal fibrosis in mice (Example 6-2); type: in vivo, C57BL6J mice; details: 0.1% CHG 10 ml/kg i.p. every 2 days for 20 days; LX-112 70 mg/kg i.p. daily from day 9
Description: After 8-week-old male C57BL6J mice (purchased from KRIBB Laboratory Animal Resource Center) were adapted to the experimental environment for 1 week, the mice were randomized into an experimental group and a control group. To induce peritoneal fibrosis, 0.1% chlorhexidine gluconate (CHG, purchased from Sigma) was dissolved in 15% ethanol phosphate buffer solution and administered intraperitoneally at a concentration of 10 ml/kg every 2 days for 20 days. From day 9, LX-112 was mixed with 0.5% CMC-Na solution (purchased from Sigma) and administered intraperitoneally at a concentration of 70 mg/kg every day. The control group (−) was administered only the solution in the same volume. On the 20th day, paraffin sections of peritoneal tissue prepared by fixation in 4% paraformaldehyde solution were stained with H/E (Hematoxylin/Eosin) and trichrome, and the thickness of the peritoneal mesothelial cell layer was measured under a light microscope.

Splenocyte = details: cited from earlier work
[9] = system: foreskin cells in which aging was induced by doxorubicin; experiment: cell viability of senescent foreskin cells with caspase inhibitor QVD-Oph (Example 10, Table 61); type: cell-based, human; details: ABT-263 1 μM; for Survial (%): doxorubicin-senescent foreskin cells, 3 days
HMGB1 = HMGB1 ELISA in culture medium of senescent foreskin cells (Example 10, Table 62); type: cell-based, human
Description: After 6 hours, the amounts of HMGB1 and HMGN1 secreted into the cell culture medium were measured using an enzyme-linked immunosorbent assay (ELISA Kit, purchased from AssayGenie).

[10] = 1 μM, culture medium after 6 hours, senescent foreskin cells
[11] = ABT-263 1 μM or LX-112 10 μM, 6 hours

Compound	Survival (%) ([1]; 1.1 μM test compound)	Survival (%) ([1]; […] test compound)	HMGN1 (HMGN1 [2])	HMGN1 (amount of HMGN1 secreted in the cell culture) (HMGN1 [3])	Survival (%) (A549; 1.1 μM test compound)	Survival (senescent foreskin cells)	IL6 mRNA (%) (p16, MMP3, IL6 [4])	MMP3 mRNA (%) (p16, MMP3, IL6 [4])	p16 mRNA (%) (p16, MMP3, IL6 [4])	Open Field Test Time in Center (%) [5]	IL6 mRNA (%) (p16, MMP3, IL6 [6])	MMP3 mRNA (%) (p16, MMP3, IL6 [6])	p16 mRNA (%) (p16, MMP3, IL6 [6])	Open Field Test Time in Center (%) [7]	further results
Decyltriphenylphosphonium [LX-1202]	22.7%	3.1%	289	301	53.4%	55.1	74.1 (±6.1) %	40.2 (±22.7) %	74.2 (±10.4) %	231 (±23) %	62.8 (±8.9) %	70.7 (±7.5) %	67.2 (±12.1) %	175.9 (±21.5) %	–
N=C(NCCCCCCNC(=N)NC(=N)Nc1ccc(Cl)cc1)NC(=N)Nc1ccc(Cl)cc1.O=C(O)[C@H](O)[C@@H](O)[C@H](O)[C@H](O)CO.O=C(O)[C@H](O)[C@@H](O)[C@H](O)[C@H](O)CO [CHG, chlorhexidine gluconate, reference compound]	–	–	–	–	–	–	–	–	–	–	–	–	–	–	Submesothelial Thickness (μm) [8]: 69.1 (±6.4) μm
CC(O)[C@@H]1NC(=O)COCCOCCNC(=O)[C@H](C(C)O)NC(=O)N[C@@H](C(C)O)C(=O)NNC1=O (some centres unmarked) [Example 80]	–	–	–	–	–	–	–	–	–	–	–	–	–	–	Splenocyte proliferation recovery (Splenocyte): Splenocyte proliferation recovery 91%
CC(=O)OC[C@H]1O[C@@H]([S-])[C@H](OC(C)=O)[C@@H](OC(C)=O)[C@@H]1OC(C)=O.CCP(CC)CC.[Au+] [LX-201, Auranofin, reference compound]	98.2%	3%	291	337	72.5%	62.9	65.7 (±5.1) %	77 (±9.6) %	85 (±8.2) %	226.4 (±27.6) %	76.8 (±6.4) %	67.1 (±9.2) %	79.5 (±7.6) %	176 (±22.6) %	–
CC1(C)CCC(c2ccc(Cl)cc2)=C(CN2CCN(c3ccc(C(=O)NS(=O)(=O)c4ccc(N[C@H](CCN5CCOCC5)CSc5ccccc5)c(S(=O)(=O)C(F)(F)F)c4)cc3)CC2)C1 [ABT-263, reference compound]	–	–	–	–	–	–	–	–	–	–	–	–	–	–	Survial (%) ([9]; QVD-Oph 20 μM applied 4 hours before): 98.4 (±2.6) %; Survial (%) ([9]; without QVD-Oph): 23.8 (±5.5) %; inhibition of the death of senescent cells by the caspase inhibitor ([9]; QVD-Oph 20 μM, LX-112 10 μM): completely inhibited; HMGN1 (pg/ml) (HMGN1 [2]; [10]): 105.3 (±13.5) pg/ml; HMGN1 secreted in the culture medium from dying senescent cells (HMGN1 [2]; [11]): no significant change; HMGB1 (pg/ml) (HMGB1; [10]): 462.7 (±21.6) pg/ml; HMGB1 secreted in the culture medium from dying senescent cells (HMGB1; [11]): little change
S=C(N/N=C1\CCCc2cccnc21)N1CCN(c2ccccn2)CC1 [LX-801]	50.5%	48.9%	265	329	78.1%	52.7	71.1 (±1.8) %	76.5 (±4.2) %	69.4 (±6.9) %	241.8 (±17.9) %	79.4 (±4.6) %	81.7 (±2.9) %	79.8 (±3.4) %	216.8 (±12.8) %	Survival (%) ([1]; 10 μM test compound): 28.2%; Survival (%) (A549; 10 μM test compound): 12.7%
